This is an account of results in PubChem BioAssay (NCI).

Test systems include HCC-2998 colon; PC-3 prostate; NCI-H522 lung; NCI-H226 lung; A498 renal; NCI-H23 lung; COLO 205 colon; OVCAR-4 ovarian; OVCAR-5 ovarian; ACHN renal.
Common to all, as to test: inhibition of tumour cell growth, NCI panel, 48 h

SMILES strings stand for the structures.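 Values below derive from 48-hour exposures of cells grown in 96-well plates, with endpoints linearly interpolated between the two concentrations bracketing the appropriate inhibition level. The concentration for 50% growth inhibition is given as GI50. TGI: total growth inhibition.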

Regarding `C=C1CC[C@@H]2[C@](C)(COC(C)=O)[C@H](OC(C)=O)CC[C@@]2(C)[C@@H]1CC(Nc1ccc(S(=O)(=O)Nc2nccc(C)n2)cc1)C1=CCOC1=O` (stereo partly drawn), the GI50 in the test on HCC-2998 colon is 4.98 µM; in the test with PC-3 prostate, 4.46 µM; in the test on NCI-H522 lung it was 1.26 µM; in the test with NCI-H226 lung it was 2.33 µM; in the test on A498 renal, 14.8 µM; with NCI-H23 lung it was 3.78 µM. The GI50 with COLO 205 colon is 2.09 µM; in the test with OVCAR-4 ovarian it was 4.37 µM; in the test on OVCAR-5 ovarian, 3.86 µM; with ACHN renal, 3.64 µM. For the same compound, the TGI in the test on HCC-2998 colon came to 17.9 µM; in the test with PC-3 prostate it was 15.7 µM; with NCI-H522 lung, 3.1 µM; with NCI-H226 lung it was 5.91 µM; in the test on A498 renal, 28.4 µM; with NCI-H23 lung it was 16 µM. Further, the TGI came out at 4.66 µM in the test on COLO 205 colon, 15.8 µM in the test with OVCAR-4 ovarian, 12.8 µM in the test on OVCAR-5 ovarian and 13 µM in the test with ACHN renal.
For `Cc1nc2sc(C(=O)Nc3ccccc3)c(N)c2cc1C(=O)/C=C/c1ccccc1`, the GI50 was 1.77 µM in the test with HCC-2998 colon; 2.14 µM in the test with PC-3 prostate; 1.77 µM in the test with NCI-H522 lung; 2.04 µM in the test with NCI-H226 lung; 2.21 µM with A498 renal; 2.2 µM in the test with NCI-H23 lung. The GI50 in the test on COLO 205 colon was 2.02 µM; with OVCAR-4 ovarian, 3.1 µM; in the test on OVCAR-5 ovarian, 2.31 µM; in the test with ACHN renal it was 1.81 µM. Besides, the TGI with HCC-2998 colon was 3.28 µM; in the test on PC-3 prostate, 5.55 µM; in the test on NCI-H522 lung, 4.24 µM; in the test on NCI-H226 lung it was 4.6 µM; with A498 renal, 6.08 µM; in the test on NCI-H23 lung, 5.44 µM. The TGI with COLO 205 colon came out at 4.49 µM; in the test with OVCAR-4 ovarian it was 18.5 µM; in the test on OVCAR-5 ovarian it was 7.13 µM; in the test with ACHN renal it was 3.45 µM.
As to `CC(=O)[O-].CC(=O)[O-].[NH2-].[Pt+2].c1ccc2cnccc2c1`, the GI50 in the test on HCC-2998 colon is above 100 µM; in the test with PC-3 prostate, above 100 µM; with NCI-H522 lung, 12.4 µM; with NCI-H226 lung, 47.4 µM; in the test on A498 renal, above 100 µM; in the test with NCI-H23 lung, 47.7 µM. Also, the GI50 with COLO 205 colon is 24.7 µM; in the test with OVCAR-4 ovarian it was 22.3 µM; in the test with OVCAR-5 ovarian, above 100 µM; in the test with ACHN renal, 2.26 µM. In addition, the TGI in the test with HCC-2998 colon is above 100 µM; in the test with PC-3 prostate it was above 100 µM; in the test on NCI-H522 lung, 24.9 µM; in the test with NCI-H226 lung, above 100 µM; in the test with A498 renal, above 100 µM; in the test on NCI-H23 lung it was above 100 µM. Moreover, the TGI in the test with COLO 205 colon is above 100 µM; in the test on OVCAR-4 ovarian it was above 100 µM; in the test on OVCAR-5 ovarian, above 100 µM; in the test with ACHN renal, 13.4 µM.
On to `Nc1cc(N)c(N)cc1N`, for which the GI50 in the test on HCC-2998 colon was 13.4 µM; in the test with PC-3 prostate it was 3.1 µM; with NCI-H522 lung, 1.48 µM; in the test on NCI-H226 lung it was 1.93 µM; in the test on A498 renal it was 1.6 µM; in the test with NCI-H23 lung it was 1.67 µM. The GI50 in the test on COLO 205 colon was 1.81 µM; in the test on OVCAR-4 ovarian it was 1.79 µM; with OVCAR-5 ovarian, 2.18 µM; with ACHN renal it was 1.73 µM. In addition, the TGI in the test on HCC-2998 colon is 27.9 µM; with PC-3 prostate, above 100 µM; with NCI-H522 lung, 2.9 µM; with NCI-H226 lung, 3.96 µM; in the test on A498 renal, 4.67 µM; in the test with NCI-H23 lung, 4.1 µM. The TGI was 3.43 µM in the test with COLO 205 colon, 3.35 µM in the test on OVCAR-4 ovarian, 4.99 µM with OVCAR-5 ovarian and 3.72 µM with ACHN renal.
In the case of `O=NNc1nc(-c2cccnc2)nc2ccccc12`, the TGI in the test on HCC-2998 colon, in the test on PC-3 prostate, in the test on NCI-H522 lung, in the test on NCI-H226 lung, in the test on A498 renal and with NCI-H23 lung was above 100 µM throughout. Also, the TGI in the test on COLO 205 colon, in the test on OVCAR-4 ovarian, in the test with OVCAR-5 ovarian and in the test on ACHN renal was above 100 µM in each case.
As for `COc1ccc2c3c(c(=O)n(C)c2c1OC)C=CC(C)(C)O3`, the TGI with HCC-2998 colon was above 100 µM; in the test on PC-3 prostate, above 100 µM; with NCI-H522 lung, above 100 µM; with NCI-H226 lung, 80.9 µM; in the test on A498 renal it was 71.7 µM; with NCI-H23 lung, 84.9 µM. For the same compound, the TGI in the test with COLO 205 colon was 40.2 µM; with OVCAR-4 ovarian it was 41.3 µM; in the test with OVCAR-5 ovarian it was above 100 µM; in the test on ACHN renal, 27.5 µM.
With `Nc1nc2c(c(=O)[nH]1)CN(c1ccc(S(N)(=O)=O)cc1)CN2`, the TGI in the test with PC-3 prostate, with NCI-H522 lung, with NCI-H226 lung, with A498 renal, with COLO 205 colon and in the test with OVCAR-4 ovarian was above 100 µM in each case. The TGI in the test with OVCAR-5 ovarian and in the test on ACHN renal was above 100 µM each time.
With `CO/N=C(\C)c1ccc(Nc2cc(-c3ccccc3)nc3c(O)cccc23)cc1`, the GI50 with HCC-2998 colon was 22.1 µM; with PC-3 prostate, 13.7 µM; with NCI-H522 lung, 20.6 µM; in the test with NCI-H226 lung, 22.4 µM; with A498 renal, 21.4 µM; with NCI-H23 lung, 14.9 µM. Also, the GI50 was 17.2 µM in the test with COLO 205 colon, 19.9 µM with OVCAR-4 ovarian, 18.7 µM in the test on OVCAR-5 ovarian and 17.8 µM with ACHN renal. Further, the TGI in the test on HCC-2998 colon worked out at 37.1 µM; in the test with PC-3 prostate it was 35 µM; with NCI-H522 lung, 62.1 µM; with NCI-H226 lung, 78.4 µM; in the test with A498 renal, 41.6 µM; with NCI-H23 lung, 30.6 µM. For the same compound, the TGI stood at 34.5 µM with COLO 205 colon, 50.7 µM in the test on OVCAR-4 ovarian, 33.4 µM in the test with OVCAR-5 ovarian and 34 µM in the test with ACHN renal.
For the compound `C[C@@H]1COCCN1c1cc(C2(S(C)(=N)=O)CC2)nc(-c2ccnc3[nH]ccc23)n1` (stereo partly drawn), the GI50 in the test on HCC-2998 colon is 2.39 µM; in the test on PC-3 prostate, 12.8 µM; with NCI-H522 lung, 6.92 µM; in the test on NCI-H226 lung, 3.94 µM; with A498 renal it was 0.146 µM; in the test with NCI-H23 lung it was 2.62 µM. Also, the GI50 was 11.7 µM with COLO 205 colon, 1.86 µM in the test on OVCAR-4 ovarian, 3.3 µM with OVCAR-5 ovarian and 0.592 µM in the test on ACHN renal. For the same compound, the TGI is above 100 µM in the test with HCC-2998 colon; 74.2 µM in the test with PC-3 prostate; 43.1 µM with NCI-H522 lung; 76.8 µM in the test with NCI-H226 lung; 1.69 µM with A498 renal; 34.3 µM with NCI-H23 lung. Further, the TGI in the test on COLO 205 colon came to 29 µM; in the test on OVCAR-4 ovarian, 23.7 µM; in the test with OVCAR-5 ovarian, 16.7 µM; in the test with ACHN renal it was 4.3 µM.
